Measured values: ChEMBL document CHEMBL3734649, “H2O-mediated isatin spiro-epoxide ring opening with NaCN: Synthesis of novel 3-tetrazolylmethyl-3-hydroxy-oxindole hybrids and their anticancer evaluation” (Eur J Med Chem, 2015)

How the values were obtained:
[1] = Anticancer activity against human BT549 cells after 48 hrs by MTT assay; assay type: functional, cell-based; conditions: BT-549, 48 h
[2] = Anticancer activity against human PC3 cells after 48 hrs by MTT assay; assay type: functional, cell-based; conditions: PC-3, 48 h
[3] = system: MDA-MB-231; assay: Anticancer activity against human MDA-MB-231 cells after 48 hrs by MTT assay; assay type: functional, cell-based; conditions: MDA-MB-231, 48 h
[4] = Anticancer activity against human DU145 cells after 48 hrs by MTT assay; assay type: functional, cell-based; conditions: DU-145, 48 h
[5] = Anticancer activity against human PA1 cells after 48 hrs by MTT assay; assay type: functional, cell-based; conditions: PA-1, 48 h
[6] = Cytotoxicity against human RWPE1 cells after 48 hrs by MTT assay; assay type: cell-based; conditions: RWPE-1, 48 h
[7] = Selectivity index, ratio of IC50 for human RWPE1 cells to IC50 for human DU145 cells; assay type: functional

Row | SMILES | IC50 [1] [µM] | IC50 [2] [µM] | IC50 [3] [µM] | IC50 [4] [µM] | IC50 [5] [µM] | IC50 [6] [µM] | Ratio IC50 [7]
1 | O=C1N(Cc2ccccc2)c2ccccc2C1(O)Cc1nnn[nH]1 (stereo not drawn) | > 100 | > 100 | 74.1 | > 100 | > 100 | – | –
2 | O=C1N(Cc2ccc(Br)cc2)c2ccccc2C1(O)Cc1nnn[nH]1 (stereo not drawn) | 73.4 | 10.1 | > 100 | 7.01 | 38.9 | 76 | 10
3 | CCN1C(=O)C(O)(Cc2nnn[nH]2)c2cc(Cl)ccc21 (stereo not drawn) | 85.4 | 79.3 | 84.9 | 21.5 | 49.5 | – | –
4 | CN1C(=O)C(O)(Cc2nnn[nH]2)c2cc(Cl)ccc21 (stereo not drawn) | > 100 | > 100 | > 100 | 76 | > 100 | – | –
5 | CN1C(=O)C(O)(Cc2nnn[nH]2)c2ccccc21 (stereo not drawn) | > 100 | 44.8 | > 100 | 36.8 | 45.5 | – | –
6 | O=C1N(Cc2ccccc2)c2ccc(F)cc2C1(O)Cc1nnn[nH]1 (stereo not drawn) | 78.7 | > 100 | 27.2 | > 100 | > 100 | – | –
7 | CCN1C(=O)C(O)(Cc2nnn[nH]2)c2cc(Br)ccc21 (stereo not drawn) | > 100 | > 100 | > 100 | > 100 | > 100 | – | –
8 | Cc1ccc2c(c1)C(O)(Cc1nnn[nH]1)C(=O)N2C (stereo not drawn) | > 100 | > 100 | > 100 | > 100 | > 100 | – | –
9 | CN1C(=O)C(O)(Cc2nnn[nH]2)c2cc(F)ccc21 (stereo not drawn) | > 100 | 38.2 | > 100 | > 100 | > 100 | – | –
10 | O=C1N(Cc2ccc(Br)cc2)c2ccc(F)cc2C1(O)Cc1nnn[nH]1 (stereo not drawn) | > 100 | > 100 | > 100 | 14.4 | > 100 | > 100 | –
